In article PMC6072516, “Rational design and synthesis of novel phenylsulfonyl-benzamides as anti-prostate cancer agents” (MedChemComm, 2017):

System: not listed separately
Experiment: Cell Titer Blue viability (cytotoxicity) assay
Type: cell-based, human
Details: human
Method: A Cell Titer Blue viability assay was performed in the human embryonic kidney cell line HEK293, in order to evaluate the cytotoxicity profile of the newly prepared compounds. […] .
Fig. 5 HEK293 human embryonic kidney cells were treated at 70% confluence with negative controls (0.1% DMSO, BICAL at 10 μM), positive control (10% DMSO) and compounds at 10 μM concentration for 24 hours. […] Fluorescence was measured at 560/590 nm using a CLARIOstar luminescence plate reader (BMG Labtech). N = 4, n = 6 for controls, n = 3 for drugs. […]
for calculation of the geometric mean value. […]
of 0.05% Trypsin/EDTA. […] When all cells […]
chamber counting grid (Immune Systems). […]
confluence for assay the next day. […]
drugs at 10 µM concentration.
100 µl media. […] Fluorescence was measured
USA). […] The Dunnett’s multiple […]
comparison test was used to compare each drug and the positive control to the negative control […]
Compound R1 X R2 Cell Viability Antiproliferative
Mean (%)* SEM** Abs. IC50
Table S2. Cell Viability assay at 10 µM. * Mean % of cell viability relative to control; ** Errors are calculated as standard error of the mean; ***Geometric mean.

| Compound | viability at 24 h, 10 µM |
| --- | --- |
| O=C(Nc1ccc(C(F)(F)F)cc1)c1ccc(S(=O)(=O)c2ccc(O)cc2)cc1 [Compound 13g] | 61.8% |
| O=C(Nc1cccc(C(F)(F)F)c1)c1ccc(S(=O)(=O)c2ccc(O)cc2)cc1 [Compound 13h] | 87.6% |
| O=C(Nc1ccccc1C(F)(F)F)c1ccc(S(=O)(=O)c2ccc(O)cc2)cc1 [Compound 13i] | 129% |
| O=C(Nc1ccc(S(F)(F)(F)(F)F)cc1)c1ccc([S+]([O-])c2ccc(O)cc2)cc1 (stereo not shown) [Compound 14e, 4-((4-Hydroxyphenyl)sulfinyl)-N-(4-(pentafluorothio)phenyl)benzamide] | 59.7% |
| O=C(Nc1ccccc1C(F)(F)F)c1ccc([S+]([O-])c2ccc(O)cc2)cc1 (stereo not shown) [Compound 14i] | 104% |
| O=C(Nc1cccc(C(F)(F)F)c1)c1ccc(S(=O)(=O)c2cccc(C(F)(F)F)c2)cc1 [Compound 15h] | 83.9% |

Same assay, conditions: human, HEK293 cells; 10 µM, 24 h, HEK293; mean % of cell viability relative to control; read-out: Cell Viability Mean (%)

| Compound | viability at 24 h, 10 µM |
| --- | --- |
| C[C@](O)(CS(=O)(=O)c1ccc(F)cc1)C(=O)Nc1ccc(C#N)c(C(F)(F)F)c1 [Bicalutamide, bicalutamide, reference compound] | 94.6% |

Same assay, conditions: human; 10 µM, 24 h, HEK293; mean % of cell viability relative to control; read-out: Cell Viability Mean (%)

| Compound | viability at 24 h, 10 µM |
| --- | --- |
| N#Cc1ccc(NC(=O)c2ccc(Sc3ccc(O)cc3)cc2)cc1C(F)(F)F [Compound 11a] | 65.7% |
| N#Cc1ccc(NC(=O)c2ccc(Sc3cccc(C(F)(F)F)c3)cc2)cc1C(F)(F)F [Compound 12a] | 60% |
| N#Cc1ccc(NC(=O)c2ccc(S(=O)(=O)c3ccc(O)cc3)cc2)cc1C(F)(F)F [Compound 13a] | 73% |
| N#Cc1ccc(NC(=O)c2ccc(S(=O)(=O)c3cccc(C(F)(F)F)c3)cc2)cc1C(F)(F)F [Compound 15a] | 79% |

System: DU-145
Experiment: 2D monolayer antiproliferative assay (propidium iodide), DU-145
Details: Homo sapiens, DU-145, 96 h, read-out: Absolute IC50 DU-145
Method: (§1) All new compounds along with the two standards were tested for their ability to inhibit survival and/or cell proliferation in four human prostate cancer cell lines: LNCaP, 22Rv1, VCaP, androgen-sensitive cell lines, and DU145, a non hormone-sensitive cell line.
(§2) Compound Handling: Stock solutions for all inhibitors were prepared in DMSO at a
(§3) were well soluble at this concentration in DMSO and precipitation was not observed for any
(§4) compound dissolved in 100% DMSO. Aliquots of the stock solution were thawed on the day
(§5) of use and stored at room temperature prior to and during treatment. The subsequent dilutions
(§6) were done with complete RPMI1640 cell culture medium. The DMSO stock solution was first
(§7) Starting with this solution, serial dilutions in
(§8) half-log steps with cell culture medium were done using an intermediate dilution plate. Finally,
(§9) 10 µl taken from the intermediate dilution plate were transferred to 140 µl / well of the cell
(§10) culture plate. Thus, at the highest test concentration the DMSO stock was diluted 1:330,
(§11) corresponding to a maximum DMSO concentration of 0.3 % v/v in the assay. Solubility of the
(§12) diluted compounds in the assay was monitored under the microscope by visual inspection of
(§13) the treated cell lines after the 4 days incubation. Precipitation as observed by crystalline
(§14) Tumor Cell lines: The cell line panel used for assessing the novel inhibitors comprised four
(§15) cell lines derived from human prostate cancers.
(§16) 6-7 Cell lines were routinely passaged once or twice weekly and maintained in culture for up to 20 passages. All cells were grown at 37°C in
(§17) glutamine, #FG1385, Biochrom, Berlin, Germany) supplemented with 10% (v/v) fetal calf serum (Sigma, Taufkirchen, Germany) and 0.1 mg/mL gentamicin (Life Technologies,
(§18) Cell Proliferation Assay: A modified propidium iodide (PI) based monolayer assay was used
(§19) exponential phase cultures, counted and plated in 96-well flat-bottom micro titer plates at a cell density of 4.000 – 30.000 cells/well. After a 24 h recovery period to allow the cells to resume exponential growth, 10 µl of culture medium (six control wells/plate) or culture medium with test compound were added. The compounds were applied in half-log increments at 10 concentrations in triplicate. After a total treatment period of 96 h, cells were washed with 200 µl PBS to remove dead cells and debris. Then, 200 µl of a solution containing 7 µg/ml propidium iodide (PI) and 0.1% (v/v) Triton X-100 was added. After an incubation period of 1-2 hours at room temperature, fluorescence (FU) was measured using the EnSpire Multimode Plate Reader (excitation λ= 530 nm, emission λ= 620 nm) to quantify the amount of attached
(§20) For calculation of mean IC50 values the geometric mean was used.
(§21) Data Evaluation: An assay was considered fully evaluable if the following quality control
(§22) - Z’-factor calculated within the assay plate ≥0.59
(§23) - fluorescence intensity of >500 U from the untreated control wells, equivalent to a
(§24) - coefficient of variation in the growth control wells ≤30
(§25) Compound effects were expressed in terms of the percentage of the fluorescence signal, obtained by comparison of the mean signal in the treated wells with the mean signal of the untreated controls (expressed by the test-versus-control value, T/C-value [%]):

| Compound | IC50 |
| --- | --- |
| N#Cc1ccc(NC(=O)c2ccc(Sc3ccc(O)cc3)cc2)cc1C(F)(F)F [Compound 11a] | 7.77 µM |
| N#Cc1ccc(NC(=O)c2ccc(Sc3cccc(C(F)(F)F)c3)cc2)cc1C(F)(F)F [Compound 12a] | 5.12 µM |
| N#Cc1ccc(NC(=O)c2ccc(S(=O)(=O)c3ccc(O)cc3)cc2)cc1C(F)(F)F [Compound 13a] | 12.6 µM |
| O=C(Nc1cc(C(F)(F)F)ccc1C(F)(F)F)c1ccc(S(=O)(=O)c2ccc(O)cc2)cc1 [Compound 13d] | 27.8 µM |
| O=C(Nc1ccc(C(F)(F)F)cc1)c1ccc(S(=O)(=O)c2ccc(O)cc2)cc1 [Compound 13g] | 30.7 µM |
| O=C(Nc1cccc(C(F)(F)F)c1)c1ccc(S(=O)(=O)c2ccc(O)cc2)cc1 [Compound 13h] | 17.7 µM |
| O=C(Nc1ccccc1C(F)(F)F)c1ccc(S(=O)(=O)c2ccc(O)cc2)cc1 [Compound 13i] | 45.9 µM |
| O=C(Nc1ccc(S(F)(F)(F)(F)F)cc1)c1ccc([S+]([O-])c2ccc(O)cc2)cc1 (stereo not shown) [Compound 14e, 4-((4-Hydroxyphenyl)sulfinyl)-N-(4-(pentafluorothio)phenyl)benzamide] | 11 µM |
| O=C(Nc1ccccc1C(F)(F)F)c1ccc([S+]([O-])c2ccc(O)cc2)cc1 (stereo not shown) [Compound 14i] | > 100 µM |
| N#Cc1ccc(NC(=O)c2ccc(S(=O)(=O)c3cccc(C(F)(F)F)c3)cc2)cc1C(F)(F)F [Compound 15a] | 4.7 µM |

System: 22Rv1
Experiment: 2D monolayer antiproliferative assay (propidium iodide), 22Rv1
Details: Homo sapiens, 22Rv1, 96 h, read-out: Absolute IC50 22Rv1
Method: as §1, §2, §3, §4, §5, §6, §7, §8, §9, §10, §11, §12, §13, §14, §15, §16, §17, §18, §19, §20, §21, §22, §23, §24, §25

| Compound | IC50 |
| --- | --- |
| N#Cc1ccc(NC(=O)c2ccc(Sc3ccc(O)cc3)cc2)cc1C(F)(F)F [Compound 11a] | 6.24 µM |
| N#Cc1ccc(NC(=O)c2ccc(Sc3cccc(C(F)(F)F)c3)cc2)cc1C(F)(F)F [Compound 12a] | 3.57 µM |
| N#Cc1ccc(NC(=O)c2ccc(S(=O)(=O)c3ccc(O)cc3)cc2)cc1C(F)(F)F [Compound 13a] | 12.1 µM |
| O=C(Nc1cc(C(F)(F)F)ccc1C(F)(F)F)c1ccc(S(=O)(=O)c2ccc(O)cc2)cc1 [Compound 13d] | 20.7 µM |
| O=C(Nc1ccc(C(F)(F)F)cc1)c1ccc(S(=O)(=O)c2ccc(O)cc2)cc1 [Compound 13g] | 16.8 µM |
| O=C(Nc1cccc(C(F)(F)F)c1)c1ccc(S(=O)(=O)c2ccc(O)cc2)cc1 [Compound 13h] | 15.1 µM |
| O=C(Nc1ccccc1C(F)(F)F)c1ccc(S(=O)(=O)c2ccc(O)cc2)cc1 [Compound 13i] | 49.3 µM |
| O=C(Nc1ccc(S(F)(F)(F)(F)F)cc1)c1ccc([S+]([O-])c2ccc(O)cc2)cc1 (stereo not shown) [Compound 14e, 4-((4-Hydroxyphenyl)sulfinyl)-N-(4-(pentafluorothio)phenyl)benzamide] | 5.6 µM |
| O=C(Nc1ccccc1C(F)(F)F)c1ccc([S+]([O-])c2ccc(O)cc2)cc1 (stereo not shown) [Compound 14i] | > 100 µM |
| N#Cc1ccc(NC(=O)c2ccc(S(=O)(=O)c3cccc(C(F)(F)F)c3)cc2)cc1C(F)(F)F [Compound 15a] | 3.57 µM |

System: LNCaP
Experiment: 2D monolayer antiproliferative assay (propidium iodide), LNCaP
Details: 96 h treatment; mean of triplicate, SD ±10%
Method: as §1, §2, §3, §4, §5, §6, §7, §8, §9, §10, §11, §12, §13, §14, §15, §16, §17, §18, §19, §20, §21, §22, §23, §24, §25

| Compound | Absolute IC50 LNCaP |
| --- | --- |
| O=C(Nc1ccc(S(F)(F)(F)(F)F)cc1)c1ccc([S+]([O-])c2ccc(O)cc2)cc1 (stereo not shown) [Compound 14e, 4-((4-Hydroxyphenyl)sulfinyl)-N-(4-(pentafluorothio)phenyl)benzamide] | sub μM |

Same assay, conditions: Homo sapiens, LNCaP, 96 h, read-out: Absolute IC50 LNCaP

| Compound | IC50 |
| --- | --- |
| N#Cc1ccc(NC(=O)c2ccc(Sc3ccc(O)cc3)cc2)cc1C(F)(F)F [Compound 11a] | 5.43 µM |
| N#Cc1ccc(NC(=O)c2ccc(Sc3cccc(C(F)(F)F)c3)cc2)cc1C(F)(F)F [Compound 12a] | 8.87 µM |
| N#Cc1ccc(NC(=O)c2ccc(S(=O)(=O)c3ccc(O)cc3)cc2)cc1C(F)(F)F [Compound 13a] | 4.68 µM |
| O=C(Nc1cc(C(F)(F)F)ccc1C(F)(F)F)c1ccc(S(=O)(=O)c2ccc(O)cc2)cc1 [Compound 13d] | 23.2 µM |
| O=C(Nc1ccc(C(F)(F)F)cc1)c1ccc(S(=O)(=O)c2ccc(O)cc2)cc1 [Compound 13g] | 10.8 µM |
| O=C(Nc1cccc(C(F)(F)F)c1)c1ccc(S(=O)(=O)c2ccc(O)cc2)cc1 [Compound 13h] | 10.2 µM |
| O=C(Nc1ccccc1C(F)(F)F)c1ccc(S(=O)(=O)c2ccc(O)cc2)cc1 [Compound 13i] | 39.3 µM |
| O=C(Nc1ccc(S(F)(F)(F)(F)F)cc1)c1ccc([S+]([O-])c2ccc(O)cc2)cc1 (stereo not shown) [Compound 14e, 4-((4-Hydroxyphenyl)sulfinyl)-N-(4-(pentafluorothio)phenyl)benzamide] | 0.9 µM |
| O=C(Nc1ccccc1C(F)(F)F)c1ccc([S+]([O-])c2ccc(O)cc2)cc1 (stereo not shown) [Compound 14i] | 62 µM |
| N#Cc1ccc(NC(=O)c2ccc(S(=O)(=O)c3cccc(C(F)(F)F)c3)cc2)cc1C(F)(F)F [Compound 15a] | 3.73 µM |

System: VCaP
Experiment: 2D monolayer antiproliferative assay (propidium iodide), VCaP
Details: Homo sapiens, 96 h, read-out: Absolute IC50 VCaP
Method: as §1, §2, §3, §4, §5, §6, §7, §8, §9, §10, §11, §12, §13, §14, §15, §16, §17, §18, §19, §20, §21, §22, §23, §24, §25

| Compound | IC50 |
| --- | --- |
| N#Cc1ccc(NC(=O)c2ccc(Sc3ccc(O)cc3)cc2)cc1C(F)(F)F [Compound 11a] | 9.55 µM |
| N#Cc1ccc(NC(=O)c2ccc(Sc3cccc(C(F)(F)F)c3)cc2)cc1C(F)(F)F [Compound 12a] | 5.66 µM |
| N#Cc1ccc(NC(=O)c2ccc(S(=O)(=O)c3ccc(O)cc3)cc2)cc1C(F)(F)F [Compound 13a] | 8.56 µM |
| O=C(Nc1cc(C(F)(F)F)ccc1C(F)(F)F)c1ccc(S(=O)(=O)c2ccc(O)cc2)cc1 [Compound 13d] | 30.5 µM |
| O=C(Nc1ccc(C(F)(F)F)cc1)c1ccc(S(=O)(=O)c2ccc(O)cc2)cc1 [Compound 13g] | 27.2 µM |
| O=C(Nc1cccc(C(F)(F)F)c1)c1ccc(S(=O)(=O)c2ccc(O)cc2)cc1 [Compound 13h] | 30.1 µM |
| O=C(Nc1ccccc1C(F)(F)F)c1ccc(S(=O)(=O)c2ccc(O)cc2)cc1 [Compound 13i] | 65.2 µM |
| O=C(Nc1ccc(S(F)(F)(F)(F)F)cc1)c1ccc([S+]([O-])c2ccc(O)cc2)cc1 (stereo not shown) [Compound 14e, 4-((4-Hydroxyphenyl)sulfinyl)-N-(4-(pentafluorothio)phenyl)benzamide] | 3.53 µM |
| O=C(Nc1ccccc1C(F)(F)F)c1ccc([S+]([O-])c2ccc(O)cc2)cc1 (stereo not shown) [Compound 14i] | 97.6 µM |
| N#Cc1ccc(NC(=O)c2ccc(S(=O)(=O)c3cccc(C(F)(F)F)c3)cc2)cc1C(F)(F)F [Compound 15a] | 7.87 µM |

System: four human prostate cancer cell lines: LNCaP, 22Rv1, VCaP, DU145
Experiment: Antiproliferative assay, overall effect in the four cell lines (geometric mean)
Type: cell-based
Details: Homo sapiens, geometric mean of the four cell lines; read-out: Absolute IC50 Geo. mean
Method: PCR based DNA-fingerprinting methodology.
density of 4.000 – 30.000 cells/well.
test compound were added.
concentrations in triplicate.
After an incubation period of
control/background ratio >3.0
The absolute IC50 value reflects the
The calculation was done by a 4
for calculation of the geometric mean value.
of 0.05% Trypsin/EDTA. […] When all cells

| Compound | IC50 |
| --- | --- |
| C[C@](O)(CS(=O)(=O)c1ccc(F)cc1)C(=O)Nc1ccc(C#N)c(C(F)(F)F)c1 [Bicalutamide, bicalutamide, reference compound] | 50 µM |
| N#Cc1ccc(NC(=O)c2ccc(Sc3ccc(O)cc3)cc2)cc1C(F)(F)F [Compound 11a] | 7.08 µM |
| N#Cc1ccc(NC(=O)c2ccc(Sc3cccc(C(F)(F)F)c3)cc2)cc1C(F)(F)F [Compound 12a] | 5.5 µM |
| N#Cc1ccc(NC(=O)c2ccc(S(=O)(=O)c3ccc(O)cc3)cc2)cc1C(F)(F)F [Compound 13a] | 8.84 µM |
| O=C(Nc1cc(C(F)(F)F)ccc1C(F)(F)F)c1ccc(S(=O)(=O)c2ccc(O)cc2)cc1 [Compound 13d] | 25.2 µM |
| O=C(Nc1ccc(C(F)(F)F)cc1)c1ccc(S(=O)(=O)c2ccc(O)cc2)cc1 [Compound 13g] | 19.7 µM |
| O=C(Nc1cccc(C(F)(F)F)c1)c1ccc(S(=O)(=O)c2ccc(O)cc2)cc1 [Compound 13h] | < 16 µM |
| O=C(Nc1ccccc1C(F)(F)F)c1ccc(S(=O)(=O)c2ccc(O)cc2)cc1 [Compound 13i] | 49.1 µM |
| O=C(Nc1ccc(S(F)(F)(F)(F)F)cc1)c1ccc([S+]([O-])c2ccc(O)cc2)cc1 (stereo not shown) [Compound 14e, 4-((4-Hydroxyphenyl)sulfinyl)-N-(4-(pentafluorothio)phenyl)benzamide] | 3.75 µM |
| N#Cc1ccc(NC(=O)c2ccc(S(=O)(=O)c3cccc(C(F)(F)F)c3)cc2)cc1C(F)(F)F [Compound 15a] | 4.71 µM |

Same assay, conditions: geometric mean of the four cell lines; read-out: Absolute IC50 Geo. mean

| Compound | IC50 |
| --- | --- |
| C[C@](O)(CS(=O)(=O)c1ccc(F)cc1)C(=O)Nc1ccc(C#N)c(C(F)(F)F)c1 [Bicalutamide, bicalutamide, reference compound] | 52.4 µM |
| O=C(Nc1cccc(C(F)(F)F)c1)c1ccc(S(=O)(=O)c2ccc(O)cc2)cc1 [Compound 13h] | 16.8 µM |
